Structures can show the parent of a compound that is named as a salt.
The compounds below were run against PI3Kδ (p110δ/p85α) (Homo sapiens (Human), UniProt O00329) (assay: PI3Kδ Scintillation Proximity Assay (Example A3)). Settings: 20 μM ATP, 20 μM PIP2, 4 nM PI3Kδ, read-out: PI3Kδ SPA IC50.
Assay type: biochemical
Experimental: [γ-^33P]ATP (10 mCi/mL) was purchased from PerkinElmer (Waltham, Mass.). […] PI3Kδ (p110δ/p85α) was purchased from Millipore (Bedford, Mass.). ATP, MgCl2, DTT, EDTA, MOPS and CHAPS were purchased from Sigma-Aldrich (St. Louis, Mo.). Wheat Germ Agglutinin (WGA) YSi SPA Scintillation Beads was purchased from GE healthcare life sciences (Piscataway, N.J.).
The kinase reaction was conducted in polystyrene 384-well matrix white plate from Thermo Fisher Scientific in a final volume of 25 μL. Inhibitors were first diluted serially in DMSO and added to the plate wells before the addition of other reaction components. The final concentration of DMSO in the assay was 0.5%. The PI3K assays were carried out at room temperature in 20 mM MOPS, pH 6.7, 10 mM MgCl2, 5 mM DTT and CHAPS 0.03%. Reactions were initiated by the addition of ATP, the final reaction mixture consisted of 20 μM PIP2, 20 μM ATP, 0.2 μCi [γ-^33P] ATP, 4 nM PI3Kδ. […] 25 mM EDTA, 400 μM ATP. The final concentration of SPA beads was 1.0 mg/mL. After the plate sealing, plates were shaken overnight at room temperature and centrifuged at 1800 rpm for 10 minutes, the radioactivity of the product was determined by scintillation counting on Topcount (PerkinElmer). IC50 determination was performed by fitting the curve of percent control activity versus the log of the inhibitor concentration using the GraphPad Prism 3.0 software.

Chain of PI3Kδ (p110δ/p85α) (O00329 whole entry): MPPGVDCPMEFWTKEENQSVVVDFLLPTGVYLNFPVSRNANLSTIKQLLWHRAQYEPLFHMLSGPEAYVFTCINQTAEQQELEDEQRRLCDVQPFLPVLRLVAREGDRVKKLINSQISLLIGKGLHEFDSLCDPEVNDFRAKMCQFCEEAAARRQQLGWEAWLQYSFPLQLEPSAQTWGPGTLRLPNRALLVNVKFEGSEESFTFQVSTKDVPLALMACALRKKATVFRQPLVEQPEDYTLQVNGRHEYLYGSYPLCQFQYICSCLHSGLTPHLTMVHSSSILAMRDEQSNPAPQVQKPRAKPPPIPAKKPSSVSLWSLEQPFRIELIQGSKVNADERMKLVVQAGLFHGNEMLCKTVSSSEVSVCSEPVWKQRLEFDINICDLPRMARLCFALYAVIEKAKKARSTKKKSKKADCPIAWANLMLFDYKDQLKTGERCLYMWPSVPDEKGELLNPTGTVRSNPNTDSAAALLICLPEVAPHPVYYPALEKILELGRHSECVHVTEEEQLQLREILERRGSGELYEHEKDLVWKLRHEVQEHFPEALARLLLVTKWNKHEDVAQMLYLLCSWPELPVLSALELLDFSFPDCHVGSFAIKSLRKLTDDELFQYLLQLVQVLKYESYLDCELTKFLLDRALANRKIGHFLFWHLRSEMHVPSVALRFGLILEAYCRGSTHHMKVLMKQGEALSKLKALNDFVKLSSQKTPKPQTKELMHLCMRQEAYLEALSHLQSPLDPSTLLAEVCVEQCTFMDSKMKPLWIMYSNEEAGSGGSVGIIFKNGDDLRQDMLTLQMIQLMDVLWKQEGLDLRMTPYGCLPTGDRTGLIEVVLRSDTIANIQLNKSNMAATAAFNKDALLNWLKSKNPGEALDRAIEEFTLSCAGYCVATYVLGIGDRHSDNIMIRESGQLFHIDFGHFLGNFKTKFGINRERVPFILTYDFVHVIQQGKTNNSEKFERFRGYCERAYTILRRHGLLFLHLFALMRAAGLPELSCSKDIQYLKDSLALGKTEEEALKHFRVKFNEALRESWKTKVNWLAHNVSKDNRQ
Chain of PI3Kδ (p110δ/p85α) (P27986 whole entry partner): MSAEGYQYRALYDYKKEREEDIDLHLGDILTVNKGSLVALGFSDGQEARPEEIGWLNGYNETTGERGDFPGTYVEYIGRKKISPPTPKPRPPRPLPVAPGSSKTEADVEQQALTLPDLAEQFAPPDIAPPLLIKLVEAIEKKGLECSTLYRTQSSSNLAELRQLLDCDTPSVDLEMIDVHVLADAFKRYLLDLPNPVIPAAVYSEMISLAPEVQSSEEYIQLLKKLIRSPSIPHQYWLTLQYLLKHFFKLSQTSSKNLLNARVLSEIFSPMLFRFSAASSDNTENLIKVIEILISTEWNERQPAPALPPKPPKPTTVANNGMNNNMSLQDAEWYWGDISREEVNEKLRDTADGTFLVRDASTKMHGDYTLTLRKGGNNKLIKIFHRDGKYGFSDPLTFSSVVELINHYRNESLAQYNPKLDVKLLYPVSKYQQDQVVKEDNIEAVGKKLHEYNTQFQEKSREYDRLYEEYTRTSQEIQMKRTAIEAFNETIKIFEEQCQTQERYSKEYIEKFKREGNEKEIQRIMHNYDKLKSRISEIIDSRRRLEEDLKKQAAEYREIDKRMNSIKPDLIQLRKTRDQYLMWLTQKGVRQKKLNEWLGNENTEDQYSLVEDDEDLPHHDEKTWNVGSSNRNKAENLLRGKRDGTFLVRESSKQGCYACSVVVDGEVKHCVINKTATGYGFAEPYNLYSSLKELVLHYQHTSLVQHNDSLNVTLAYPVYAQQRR

| Compound | IC50 [nM] |
| --- | --- |
| COc1c(C(C)n2nc(C)c3c(N)ncnc32)cc(Cl)c(C)c1-c1ccc(C(=O)N(C)C)c(F)c1 (single isomer, unassigned) [Example 21, 3′-[1-(4-Amino-3-methyl-1H-pyrazolo[3,4-d]pyrimidin-1-yl)ethyl]-5′-chloro-3-fluoro-2′-methoxy-N,N,6′-trimethylbiphenyl-4-carboxamide trifluoroacetate] | < 10 |
| CNC(=O)c1ccc(-c2c(C)c(Cl)cc(C(C)n3nc(C)c4c(N)ncnc43)c2OC)cc1F (single isomer, unassigned) [Example 22, 3′-[1-(4-Amino-3-methyl-1H-pyrazolo[3,4-d]pyrimidin-1-yl)ethyl]-5′-chloro-3-fluoro-2′-methoxy-N,6′-dimethylbiphenyl-4-carboxamide trifluoroacetate] | < 10 |
| COc1c(C(C)n2nc(C)c3c(N)ncnc32)cc(Cl)c(C)c1-c1cncc(C(=O)N(C)C)c1 (single isomer, unassigned) [Example 65, 5-{3-[1-(4-amino-3-methyl-1H-pyrazolo[3,4-d]pyrimidin-1-yl)ethyl]-5-chloro-2-methoxy-6-methylphenyl}-N,N-dimethylnicotinamide] | < 10 |
| CCOc1c(C(C)n2nc(C)c3c(N)ncnc32)cc(Cl)c(C)c1C1CN(C(C)C)C1 (single isomer, unassigned) [Example 94, 1-{1-[5-Chloro-2-ethoxy-3-(1-isopropylazetidin-3-yl)-4-methylphenyl]ethyl}-3-methyl-1H-pyrazolo[3,4-d]pyrimidin-4-amine bis(trifluoroacetate)] | < 10 |
| COc1c(C(C)n2nc(C)c3c(N)ncnc32)cc(Cl)c(C)c1C1CN(CCO)C1 (single isomer, unassigned) [Example 104, 2-(3-{3-[1-(4-Amino-3-methyl-1H-pyrazolo[3,4-d]pyrimidin-1-yl)ethyl]-5-chloro-2-methoxy-6-methylphenyl}azetidin-1-yl)ethanol] | < 10 |
| COc1c(C(C)n2nc(C)c3c(N)ncnc32)cc(Cl)c(C)c1C1CN(CC#N)C1 (single isomer, unassigned) [Example 105, (3-{3-[1-(4-Amino-3-methyl-1H-pyrazolo[3,4-d]pyrimidin-1-yl)ethyl]-5-chloro-2-methoxy-6-methylphenyl}azetidin-1-yl)acetonitrile] | < 10 |
| COc1c(C(C)n2nc(C)c3c(N)ncnc32)cc(Cl)c(C)c1C1CN(CC(F)(F)F)C1 (single isomer, unassigned) [Example 108, 1-(1-{5-Chloro-2-methoxy-4-methyl-3-[1-(2,2,2-trifluoroethyl)azetidin-3-yl]phenyl}ethyl)-3-methyl-1H-pyrazolo[3,4-d]pyrimidin-4-amine] | < 10 |
| COc1c(C(C)n2nc(C)c3c(N)ncnc32)cc(Cl)c(C)c1C1CN(C[C@@H](O)C(F)(F)F)C1 (single isomer, unassigned) [Example 115] | < 10 |
| COc1c(C(C)n2nc(C)c3c(N)ncnc32)cc(Cl)c(C)c1C1CN(C(=O)[C@H](C)O)C1 (single isomer, unassigned) [Example 118] | < 10 |
| COc1c(C(C)n2nc(C)c3c(N)ncnc32)cc(Cl)c(C)c1C1CN(C(=O)[C@@H](C)O)C1 (single isomer, unassigned) [Example 121, trifluoroacetate] | < 10 |
| COc1c(C(C)n2nc(C)c3c(N)ncnc32)cc(Cl)c(C)c1C1CN(CC(C)(C)O)C1 (single isomer, unassigned) [Example 158, 1-(3-{3-[1-(4-Amino-3-methyl-1H-pyrazolo[3,4-d]pyrimidin-1-yl)ethyl]-5-chloro-2-methoxy-6-methylphenyl}azetidin-1-yl)-2-methylpropan-2-ol] | < 10 |
| COc1c(C(C)n2nc(C)c3c(N)ncnc32)cc(Cl)c(C)c1C1CN(C2(CC#N)CCC2)C1 (single isomer, unassigned) [Example 161, [1-(3-{3-[1-(4-Amino-3-methyl-1H-pyrazolo[3,4-d]pyrimidin-1-yl)ethyl]-5-chloro-2-methoxy-6-methylphenyl}azetidin-1-yl)cyclobutyl]acetonitrile] | < 10 |
| COc1c(C(C)n2nc(C)c3c(N)ncnc32)cc(Cl)c(C)c1-c1cnc(N)nc1 (single isomer, unassigned) [Example 169, 1-(1-(3-(2-aminopyrimidin-5-yl)-5-chloro-2-methoxy-4-methylphenyl)ethyl)-3-methyl-1H-pyrazolo[3,4-d]pyrimidin-4-amine] | < 10 |
| COc1c(C(C)n2nc(C)c3c(N)ncnc32)cc(Cl)c(C)c1-c1cnn(CCN(C)C)c1 (single isomer, unassigned) [Example 183, 1-[1-(5-Chloro-3-{1-[2-(dimethylamino)ethyl]-1H-pyrazol-4-yl}-2-methoxy-4-methylphenyl)ethyl]-3-methyl-1H-pyrazolo[3,4-d]pyrimidin-4-amine] | < 10 |
| COc1c(C(C)n2nc(C)c3c(N)ncnc32)cc(Cl)c(C)c1-c1ccc(NCCO)nc1 (single isomer, unassigned) [Example 184, 2-[(5-{3-[1-(4-Amino-3-methyl-1H-pyrazolo[3,4-d]pyrimidin-1-yl)ethyl]-5-chloro-2-methoxy-6-methylphenyl}pyridin-2-yl)amino]ethanol] | < 10 |
| COc1c(C(C)n2nc(C)c3c(N)ncnc32)cc(Cl)c(C)c1-c1ccc(OCCO)nc1 (single isomer, unassigned) [Example 188, 2-(5-(3-(1-(4-Amino-3-methyl-1H-pyrazolo[3,4-d]pyrimidin-1-yl)ethyl)-5-chloro-2-methoxy-6-methylphenyl)pyridin-2-yloxy)ethanol] | < 10 |
| Cc1c(Cl)cc(C(C)n2nc(C)c3c(N)ncnc32)c(OCC(F)F)c1-c1ccc(C(=O)N(C)C)nc1 (single isomer, unassigned) [Example 189, 5-(3-(1-(4-Amino-3-methyl-1H-pyrazolo[3,4-d]pyrimidin-1-yl)ethyl)-5-chloro-2-(2,2-difluoroethoxy)-6-methylphenyl)-N,N-dimethylpicolinamide bis(2,2,2-trifluoroacetate)] | < 10 |
| CCOc1c(C(C)n2nc(C)c3c(N)ncnc32)cc(Cl)c(C)c1-c1cnn(CC(N)=O)c1 (single isomer, unassigned) [Example 203, 2-(4-(3-(1-(4-Amino-3-methyl-1H-pyrazolo[3,4-d]pyrimidin-1-yl)ethyl)-5-chloro-2-ethoxy-6-methylphenyl)-1H-pyrazol-1-yl)acetamide] | < 10 |
| CCOc1c(C(C)n2nc(C)c3c(N)ncnc32)cc(Cl)c(C#N)c1C1CNC1 (single isomer, unassigned) [Example 212, 4-[1-(4-Amino-3-methyl-1H-pyrazolo[3,4-d]pyrimidin-1-yl)ethyl]-2-azetidin-3-yl-6-chloro-3-ethoxybenzonitrile] | < 10 |
| CCOc1c(C(C)n2nc(C)c3c(N)ncnc32)cc(Cl)c(C#N)c1C1CN(C)C1 (single isomer, unassigned) [Example 213, 4-[1-(4-Amino-3-methyl-1H-pyrazolo[3,4-d]pyrimidin-1-yl)ethyl]-6-chloro-3-ethoxy-2-(1-methylazetidin-3-yl)benzonitrile] | < 10 |
| CCOc1c(C(C)n2nc(C)c3c(N)ncnc32)cc(Cl)c(C#N)c1C1CN(CCO)C1 (single isomer, unassigned) [Example 219, 4-[1-(4-Amino-3-methyl-1H-pyrazolo[3,4-d]pyrimidin-1-yl)ethyl]-6-chloro-3-ethoxy-2-[1-(2-hydroxyethyl)azetidin-3-yl]benzonitrile] | < 10 |
| CCOc1c(C(C)n2nc(C)c3c(N)ncnc32)cc(Cl)c(C#N)c1C1CN(C(C)(C)C(=O)OC(C)(C)C)C1 (single isomer, unassigned) [Example 236, tert-Butyl 2-(3-{3-[1-(4-amino-3-methyl-1H-pyrazolo[3,4-d]pyrimidin-1-yl)ethyl]-5-chloro-6-cyano-2-ethoxyphenyl}azetidin-1-yl)-2-methylpropanoate] | < 10 |
| CCOc1c(C(C)n2nc(C)c3c(N)ncnc32)cc(Cl)c(C#N)c1C1CN(C(C)(C)CO)C1 (single isomer, unassigned) [Example 237, 4-[1-(4-Amino-3-methyl-1H-pyrazolo[3,4-d]pyrimidin-1-yl)ethyl]-6-chloro-3-ethoxy-2-[1-(2-hydroxy-1,1-dimethylethyl)azetidin-3-yl]benzonitrile] | < 10 |
| CCOc1c(C(C)n2nc(C)c3c(N)ncnc32)cc(Cl)c(C#N)c1C1CN(C(C)(C)C(N)=O)C1 (single isomer, unassigned) [Example 239, 2-{3-(3-[1-(4-Amino-3-methyl-1H-pyrazolo[3,4-d]pyrimidin-1-yl)ethyl]-5-chloro-6-cyano-2-ethoxyphenyl}azetidin-1-yl)-2-methylpropan amide] | < 10 |
| CCOc1c(C(C)n2nc(C)c3c(N)ncnc32)cc(Cl)c(C#N)c1C1CN(C(=O)C(C)(C)O)C1 (single isomer, unassigned) [Example 247, 4-[1-(4-Amino-3-methyl-1H-pyrazolo[3,4-d]pyrimidin-1-yl)ethyl]-6-chloro-3-ethoxy-2-[1-(2-hydroxy-2-methylpropanoyl)azetidin-3-yl]benzonitrile] | < 10 |
